According to publication PMC3432695 (European journal of medicinal chemistry, 2012):
In brackets after ≈: the same amount, converted by molar mass. Several values for one entry are separate records, joined by “and”; a condition that tells them apart may be missing. Identical values can stand only once.

Key:
Chemical = format: physicochemical; settings: for t1/2 PBS: PBS pH 7.4, 37 °C, 2 mM
[1] = Solubility in PBS at pH 5, pH 6 and pH 7.4; format: physicochemical; settings: for solubility PBS pH 5: PBS pH 5, 37 °C; for solubility PBS pH 5 / solubility PBS pH 6 / solubility PBS pH 7.4: hydrochloride salts of 12, 15, 18, 21; for solubility PBS pH 6: PBS pH 6, 37 °C; for solubility PBS pH 7.4: PBS pH 7.4, 37 °C; for solubility at 4 h: PBS, 37 °C, thermodynamic from solid
TK1 (+) L929 cells = settings: cited from earlier work; for in vitro uptake in TK1 (+) L929 cells relative to TK1 (−) L929 cells: 24 h incubation in compound containing medium; for retention in cells: incubation continued for 12 h in compound free medium
[2] = tested on: TK1 (+)- or TK1 (−) L929 tumors; settings: intratumoral injection, subcutaneous tumors in nude mice; cited from earlier work
intracranial RG2 glioma = settings: cited from earlier work
Stability = format: in vitro ADME, Bovine; settings: for t1/2 Bovine serum: 37 °C, 2 mM; for hydrolysis rate in Bovine serum relative to rate in PBS: times faster in Bovine serum than in PBS
Stability in Bovine CSF = format: in vitro ADME; settings: for t1/2 Bovine CSF: 37 °C, 2 mM
[3] = ref Song et al. 15; cited from earlier work
[4] = ref Song et al. 15; cited from earlier work; remark: listed apart in the source
[5] = cited from earlier work

3',5'-Di-L-glutam-5-yl-3-(5-{o-carboran-1-yl}pentan-1-yl)thymidine [Compound 19]
t1/2 PBS (Chemical): 3.42 ± 0.10 h

3',5'-Di-L-valyl-3-(5-{o-carboran-1-yl}pentan-1-yl)thymidine [Compound 13]
t1/2 PBS (Chemical): 12.91 ± 0.17 h

3',5'-Di-glycinyl-3-(5-{o-carboran-1-yl}pentan-1-yl)thymidine [Compound 16]
t1/2 PBS (Chemical): 0.22 ± 0.03 h

3'-Glycinyl-3-(5-{o-carboran-1-yl}pentan-1-yl)thymidine [Compound 14]
t1/2 PBS (Chemical): 1.51 ± 0.11 h

3'-L-Glutam-5-yl-3-(5-{o-carboran-1-yl}pentan-1-yl)thymidine [Compound 17]
t1/2 PBS (Chemical): 26.91 ± 0.71 h

3'-L-Valyl-3-(5-{o-carboran-1-yl}pentan-1-yl)thymidine [Compound 11]
t1/2 PBS (Chemical): 29.79 ± 0.42 h

3-(5-{o-Carboran-1-yl}pentan-1-yl)thymidine [Compound 1]
solubility PBS pH 5 [1]: 0.003–0.005 g/L
solubility PBS pH 6 [1]: 0.003–0.005 g/L
solubility PBS pH 7.4 [1]: 0.003–0.005 g/L
in vitro uptake in TK1 (+) L929 cells relative to TK1 (−) L929 cells (TK1 (+) L929 cells): 5–10
retention in cells (TK1 (+) L929 cells): retained only in the former cell line

3-[5-{2-(2,3-dihydroxyprop-1-yl)-o-carboran-1-yl}pentan-1-yl]thymidine [Compound 2]
solubility PBS pH 5 [1]: 0.007–0.01 g/L
solubility PBS pH 6 [1]: 0.007–0.01 g/L
solubility PBS pH 7.4 [1]: 0.007–0.01 g/L
in vitro uptake in TK1 (+) L929 cells relative to TK1 (−) L929 cells (TK1 (+) L929 cells): 5–10
retention in cells (TK1 (+) L929 cells): retained only in the former cell line
boron concentration in TK1 (+) relative to TK1 (−) L929 tumors [2]: ~ 3 times
survival times relative to rats that received BNCT without compound (intracranial RG2 glioma; intracranial injection prior to BNCT, rats with intracranial RG2 glioma): about 2 times
pathologic alterations in rat brains (intracranial RG2 glioma; rat, in vivo): no significant pathologic alterations

5'-Glycinyl-3-(5-{o-carboran-1-yl}pentan-1-yl)thymidine [Compound 15]
t1/2 PBS (Chemical): 0.70 ± 0.04 h
t1/2 Bovine serum (Stability): 0.69 ± 0.02 h
hydrolysis rate in Bovine serum relative to rate in PBS (Stability): did not change
t1/2 Bovine CSF (Stability in Bovine CSF): 0.96 ± 0.04 h
solubility PBS pH 5 [1]: 10.99 ± 0.20 g/L
solubility PBS pH 6 [1]: 2.06 ± 0.11 g/L
solubility PBS pH 7.4 [1]: 0.19 ± 0.01 g/L

5'-Glycinyl-3-[5-(2-{2,3-dihydroxyprop-1-yl}-o-carboran-1-yl)pentan-1-yl]thymidine [Compound 21]
t1/2 PBS (Chemical): 2.21 ± 0.15 h
t1/2 Bovine serum (Stability): 1.51 ± 0.04 h
hydrolysis rate in Bovine serum relative to rate in PBS (Stability): 1.5 times
t1/2 Bovine CSF (Stability in Bovine CSF): 2.11 ± 0.14 h
solubility PBS pH 5 [1]: 11.18 ± 0.21 g/L
solubility PBS pH 6 [1]: 3.60 ± 0.12 g/L
solubility PBS pH 7.4 [1]: 0.62 ± 0.03 g/L

5'-L-Glutam-5-yl-3-(5-{o-carboran-1-yl}pentan-1-yl)thymidine [Compound 18]
t1/2 PBS (Chemical): 11.16 ± 0.37 h
t1/2 Bovine serum (Stability): 0.85 ± 0.12 h
hydrolysis rate in Bovine serum relative to rate in PBS (Stability): 13.1 times
t1/2 Bovine CSF (Stability in Bovine CSF): 1.85 ± 0.11 h
hydrolysis rate in CSF relative to PBS (Stability in Bovine CSF; times higher in Bovine CSF than in PBS): 6 times
solubility PBS pH 5 [1]: 1.13 g/L and 1.16 ± 0.04 g/L
solubility PBS pH 6 [1]: 1.13 ± 0.06 g/L
solubility PBS pH 7.4 [1]: 1.77 ± 0.08 g/L

5'-L-Valyl-3-(5-{o-carboran-1-yl}pentan-1-yl)thymidine [Compound 12]
t1/2 PBS (Chemical): 25.59 ± 0.61 h
t1/2 Bovine serum (Stability): 22.21 ± 0.52 h
hydrolysis rate in Bovine serum relative to rate in PBS (Stability): 1.2 times
t1/2 Bovine CSF (Stability in Bovine CSF): 25.47 ± 0.10 h
solubility relative to compounds 15 and 21 ([1]; PBS pH 5, 6, 7.4): 1–7 times
solubility PBS pH 5 [1]: 26.30 ± 0.90 g/L
solubility PBS pH 6 [1]: 3.70 ± 0.31 g/L
solubility PBS pH 7.4 [1]: 1.31 ± 0.05 g/L

CC(C)[C@H](N)C(=O)OCCOCn1cnc2c(=O)[nH]c(N)nc21 [Compound 4, valacyclovir, reference compound]
half-life at 2 mM (Chemical; PBS, pH 7.4): 13.6 ± 0.49 h
half-life at 2 mM (Stability; bovine, bovine serum): 6.2 ± 0.17 h
hydrolysis rate in Bovine serum relative to rate in PBS (Stability): 2.2 times
half-life at 2 mM (Stability in Bovine CSF; bovine, bovine CSF): 7.59 ± 0.12 h
solubility relative to 12 ([1]; PBS pH 5, 6, 7.4): 1.5–3 times
solubility at 4 h ([1]; pH 5, aqueous buffer): 72.7 ± 0.4 mg/mL (≈ 224 mM)
solubility at 4 h ([1]; pH 6, aqueous buffer): 13.4 ± 0.26 mg/mL (≈ 41.4 mM)
solubility at 4 h ([1]; pH 7.4, aqueous buffer): 1.91 ± 0.06 mg/mL (≈ 5.89 mM)
half-life for the chemical hydrolysis [3]: 17.15 h
half-life for the hydrolysis in human plasma [4]: 5.2 h
water solubility relative to parental nucleoside analogue (acyclovir) [5]: about 130 times
